Data taken from PubChem BioAssay (NCI).
Where “and” joins values, the source holds several entries; their conditions need not be identical. Equal values may be shown once.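 Following 48 hours of exposure in 96-well plates, responses at five concentrations were used to interpolate endpoints linearly. GI50 marks 50% less growth. TGI: total growth inhibition.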 *1 amine or outer side, *2 acyl side, *3 side chain or, on linkers, in order; H or OH if unused. Where a SMILES comes first, the peptide text is derived from it. Bridges are numbered along the chain shown (N, C = ends). Roman numbers before positions name the chains, in order. [ ]: non-standard residue; d: D form. Actinocin(9to1) = Cc1c2oc3c(C)ccc(C(=O)[*:1])c3nc-2c(C(=O)[*:2])c(N)c1=O; NMeT = CN[CH](C(=O)O)[CH](C)O; Sar = CNCC(=O)O

Tests used:
Assay in all cases: NCI-60 cell line screen, 48 h
MOLT-4 leukemia = test system: MOLT-4 leukemia
T-47D breast = test system: T-47D breast
SK-MEL-2 melanoma = test system: SK-MEL-2 melanoma
SW-620 colon = test system: SW-620 colon
NCI-H460 lung = test system: NCI-H460 lung
DU-145 prostate = test system: DU-145 prostate
ACHN renal = test system: ACHN renal
MDA-MB-231 breast = test system: MDA-MB-231 breast
SF-268 CNS = test system: SF-268 CNS
UO-31 renal = test system: UO-31 renal
PC-3 prostate = test system: PC-3 prostate
SN12C renal = test system: SN12C renal
IGROV1 ovarian = test system: IGROV1 ovarian
786-0 renal = test system: 786-0 renal
NCI-H23 lung = test system: NCI-H23 lung
HCC-2998 colon = test system: HCC-2998 colon
HCT-116 colon = test system: HCT-116 colon
HCT-15 colon = test system: HCT-15 colon
A549 NSCLC = test system: A549 NSCLC
SF-539 CNS = test system: SF-539 CNS
OVCAR-5 ovarian = test system: OVCAR-5 ovarian
M14 melanoma = test system: M14 melanoma
COLO 205 colon = test system: COLO 205 colon
SNB-75 CNS = test system: SNB-75 CNS
SNB-19 CNS = test system: SNB-19 CNS
HT29 colon = test system: HT29 colon
SK-MEL-28 melanoma = test system: SK-MEL-28 melanoma
UACC-62 melanoma = test system: UACC-62 melanoma
CCRF-CEM leukemia = test system: CCRF-CEM leukemia

Structure (SMILES): Cc1c2oc3c(C)ccc(C(=O)NC4C(=O)NC(C(C)C)C(=O)N5CCCC5C(=O)N(C)CC(=O)N(C)C(C(C)O)C(=O)OC4C)c3nc-2c(C(=O)NC2C(=O)NC(C(C)C)C(=O)N3CCCC3C(=O)N(C)CC(=O)N(C)C(C(C)O)C(=O)OC2C)c(N)c1=O (stereo not drawn) (I: TVP[Sar][NMeT] / II: TVP[Sar][NMeT]; ester I:1-I:C, II:1-II:C; linker I:N-II:N via Actinocin(9to1); configuration not given here)
- TGI (MOLT-4 leukemia): 11.1 µM and > 1 µM
- GI50 (T-47D breast): 2.67 µM and > 1 µM
- TGI (T-47D breast): > 100 µM
- TGI (SK-MEL-2 melanoma): 3.97 µM and > 1 µM
- TGI (SW-620 colon): 43.4 µM and > 1 µM
- TGI (NCI-H460 lung): 4.95 µM and > 1 µM
- GI50 (DU-145 prostate): 5.98 µM and > 1 µM
- TGI (DU-145 prostate): > 100 µM
- TGI (ACHN renal): > 26.6 µM
- GI50 (MDA-MB-231 breast): 3.53 µM and > 1 µM
- TGI (MDA-MB-231 breast): > 69.9 µM
- TGI (SF-268 CNS): > 63 µM
- GI50 (UO-31 renal): 2.99 µM and > 1 µM
- TGI (UO-31 renal): 24.8 µM and > 1 µM
- GI50 (PC-3 prostate): 2.99 µM and > 1 µM
- TGI (PC-3 prostate): > 100 µM
- TGI (SN12C renal): 42.8 µM and > 1 µM
- TGI (IGROV1 ovarian): > 41.7 µM
- GI50 (786-0 renal): 1.25 µM and 0.61 µM
- TGI (786-0 renal): > 100 µM
- TGI (NCI-H23 lung): 18.3 µM and > 1 µM
- GI50 (HCC-2998 colon): 3.64 µM and > 1 µM
- TGI (HCC-2998 colon): > 29.3 µM
- TGI (HCT-116 colon): > 100 µM
- GI50 (HCT-15 colon): 14.1 µM and > 1 µM
- TGI (HCT-15 colon): > 100 µM
- GI50 (A549 NSCLC): 2.86 µM and > 1 µM
- TGI (A549 NSCLC): > 100 µM
- TGI (SF-539 CNS): 18 µM and > 1 µM
- GI50 (OVCAR-5 ovarian): 4.29 µM and > 1 µM
- TGI (OVCAR-5 ovarian): > 43.4 µM
- GI50 (M14 melanoma): 7.14 µM and > 1 µM
- TGI (M14 melanoma): > 56.9 µM
- GI50 (COLO 205 colon): 2.22 µM and 0.801 µM
- TGI (COLO 205 colon): > 36.8 µM
- TGI (SNB-75 CNS): 3.43 µM and 0.839 µM
- GI50 (SNB-19 CNS): 2.3 µM and 0.572 µM
- TGI (SNB-19 CNS): > 100 µM
- GI50 (HT29 colon): 3.17 µM and 0.724 µM
- TGI (HT29 colon): > 100 µM
- TGI (SK-MEL-28 melanoma): 4.96 µM and > 1 µM
- TGI (UACC-62 melanoma): 1.54 µM
- TGI (CCRF-CEM leukemia): 26.7 µM and > 1 µM
